Our source for the pest or weed control and melting point values is patent US10925283B2, “Microbiocidal phenylamidine derivatives” (SYNGENTA PARTICIPATIONS AG, priority 2016, dated 2021).

Series [1] concerns Puccinia recondita f. sp. tritici. Nature of the series: Puccinia recondita f. sp. tritici / wheat / leaf disc preventative (brown rust). The series is classed as in vivo. The following applies: foliar, wheat leaf segments cv. Kanzler, inoculated 1 day after application, assessed 7-9 days after application, read-out: control of Puccinia recondita f. sp. tritici (percent disease control compared to untreated). The gist of the method:
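Leaf segments of wheat cv. Kanzler on agar were sprayed with diluted formulated compound and inoculated with spores 1 day later. Kept at 19° C, 75% rh, 12 h light/12 h dark. Percent disease control versus untreated assessed 7-9 days after application.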

Series [2] concerns Phakopsora pachyrhizi. As to the kind of experiment: Phakopsora pachyrhizi / soybean / preventative (soybean rust). It is filed as in vivo. The following applies: foliar, soybean leaf disks, inoculated one day after application, assessed 12-14 days after application, read-out: control of Phakopsora pachyrhizi (percent disease control compared to untreated). Here is the method:
Phakopsora pachyrhizi/Soybean/Preventative (Soybean Rust) Soybean leaf disks are placed on water agar in multiwell plates (24-well format) and sprayed with the formulated test compound diluted in water. One day after application leaf discs are inoculated by spraying a spore suspension on the lower leaf surface. After an incubation period in a climate cabinet of 24-36 hours in darkness at 20° C. and 75% rh leaf disc are kept at 20° C. with 12 h light/day and 75% rh. The activity of a compound is assessed as percent disease control compared to untreated when an appropriate level of disease damage appears in untreated check leaf disks (12-14 days after application).

The test system of series [3] is Blumeria graminis f. sp. tritici (Erysiphe graminis f. sp. tritici). As to the kind of experiment: Blumeria graminis f. sp. tritici / wheat / leaf disc preventative (powdery mildew on wheat). The following applies: foliar, wheat leaf segments cv. Kanzler, inoculated 1 day after application, assessed 6-8 days after application, read-out: control of Blumeria graminis f. sp. tritici (percent disease control compared to untreated). The series is classed as in vivo. An outline of the steps: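 Wheat cv. Kanzler leaf segments on agar were sprayed with formulated compound in water, then inoculated with powdery mildew 1 day after application. Incubation was at 20° C, 60% rh, 24 h dark then 12 h light/12 h dark. Percent disease control versus untreated was scored 6-8 days after application.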

Series [4] concerns Puccinia recondita f. sp. tritici. Nature of the series: Puccinia recondita f. sp. tritici / wheat / leaf disc curative (brown rust). The series is classed as in vivo. The following applies: foliar, wheat leaf segments cv. Kanzler, compound applied 1 day after inoculation, assessed 6-8 days after application, read-out: control of Puccinia recondita f. sp. tritici (percent disease control compared to untreated). An outline of the steps:
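Curative test: leaf segments of wheat cv. Kanzler on agar were inoculated with spores and held dark at 19 °C, 75% rh; formulated compound in water was applied 1 day after inoculation. Segments were then kept at 19 °C, 75% rh under 12 h light/12 h dark, and percent disease control versus untreated was scored 6-8 days after application.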

In the case of `CCCOCCC(O)(c1cc(C)c(/N=C/N(C)CC)cc1OC)C(F)(F)F` (centres unmarked) [E.052, N-ethyl-N′-[4-[1-hydroxy-3-propoxy-1-(trifluoromethyl)propyl]-5-methoxy-2-methyl-phenyl]-N-methyl-formamidine], the pest or weed control at 200 ppm in series [1], in series [2], in series [3] and in series [4] was at least 80% each time.

With `CCN(C)/C=N/c1cc(OC)c(C(O)(CCOc2ccc(F)cc2)C(F)(F)F)cc1C` (centres unmarked) [E.053, N-ethyl-N′-[4-[3-(4-fluorophenoxy)-1-hydroxy-1-(trifluoromethyl)propyl]-5-methoxy-2-methyl-phenyl]-N-methyl-formamidine], the pest or weed control at 200 ppm in series [1], in series [2], in series [3] and in series [4] was at least 80% each time.

Consider `CCN(C)/C=N/c1cc(OC)c(C(O)(CCOc2ccccc2)C(F)(F)F)cc1C` (centres unmarked) [E.054, N-ethyl-N′-[4-[1-hydroxy-3-phenoxy-1-(trifluoromethyl)propyl]-5-methoxy-2-methyl-phenyl]-N-methyl-formamidine], for which the pest or weed control at 200 ppm in series [1], in series [2], in series [3] and in series [4] was at least 80% each time.

With `CCN(C)/C=N/c1cc(OC)c(C(O)(C2CCOCC2)C(F)(F)F)cc1C` (centres unmarked) [E.055, N-ethyl-N′-[5-methoxy-2-methyl-4-(2,2,2-trifluoro-1-hydroxy-1-tetrahydropyran-4-yl-ethyl)phenyl]-N-methyl-formamidine], the pest or weed control at 200 ppm in series [1], in series [2], in series [3] and in series [4] was at least 80% each time.

Regarding `CCO/N=C/CC(O)(c1cc(C)c(/N=C/N(C)CC)cc1OC)C(F)(F)F` (centres unmarked) [E.056, N′-[4-[(3E)-3-ethoxyimino-1-hydroxy-1-(trifluoromethyl)propyl]-5-methoxy-2-methyl-phenyl]-N-ethyl-N-methyl-formamidine], the pest or weed control at 200 ppm in series [1], in series [2], in series [3] and in series [4] was at least 80% each time.

Regarding `CCO/N=C(\C)CC(O)(c1cc(C)c(/N=C/N(C)CC)cc1OC)C(F)(F)F` (centres unmarked) [E.057, N′-[4-[(3E)-3-ethoxyimino-1-hydroxy-1-(trifluoromethyl)butyl]-5-methoxy-2-methyl-phenyl]-N-ethyl-N-methyl-formamidine], the pest or weed control at 200 ppm in series [1], in series [2], in series [3] and in series [4] was at least 80% in each case.

By melting point is commonly meant the temperature of the solid-liquid transition. Compound `CCN(C)/C=N/c1cc(OC)c(C(O)(CC#N)C(F)(F)F)cc1C` (centres unmarked) [E.061, N′-[4-[1-(cyanomethyl)-2,2,2-trifluoro-1-hydroxy-ethyl]-5-methoxy-2-methyl-phenyl]-N-ethyl-N-methyl-formamidine] gave a melting point of 86 to 88 °C. Also, the pest or weed control at 200 ppm in series [1] is at least 80%. In addition, the pest or weed control at 200 ppm in series [3] is at least 80%. Besides, in series [4], the pest or weed control at 200 ppm was at least 80%.

In turn, `CCN(C)/C=N/c1cc(OC)c(C(O)(CS(=O)(=O)Cc2ccccc2)C(F)(F)F)cc1C` (centres unmarked) [E.064, N′-[4-[1-(benzylsulfonylmethyl)-2,2,2-trifluoro-1-hydroxy-ethyl]-5-methoxy-2-methyl-phenyl]-N-ethyl-N-methyl-formamidine] displayed a melting point of 56 to 58 °C. In addition, the pest or weed control at 200 ppm in series [1] was at least 80%. The pest or weed control at 200 ppm in series [3] is at least 80%. For the same compound, the pest or weed control at 200 ppm in series [4] was at least 80%.

In turn, `CCN(C)/C=N/c1cc(OC)c(C(O)(CS(=O)(=O)c2ccccc2)C(F)(F)F)cc1C` (centres unmarked) [E.065, N′-[4-[1-(benzenesulfonylmethyl)-2,2,2-trifluoro-1-hydroxy-ethyl]-5-methoxy-2-methyl-phenyl]-N-ethyl-N-methyl-formamidine] returned a melting point of 103 to 105 °C. Also, the pest or weed control at 200 ppm in series [1] was at least 80%. In addition, in series [3], the pest or weed control at 200 ppm was at least 80%. The pest or weed control at 200 ppm in series [4] is at least 80%.

For the compound `CCN(C)/C=N/c1cc(OC)c(C(O)(CSc2ccc(F)cc2)C(F)(F)F)cc1C` (centres unmarked) [E.068, N-ethyl-N′-[5-methoxy-2-methyl-4-[2,2,2-trifluoro-1-[(4-fluorophenyl)sulfanylmethyl]-1-hydroxy-ethyl]phenyl]-N-methyl-formamidine], the pest or weed control at 200 ppm in series [1], in series [2], in series [3] and in series [4] was at least 80% each time.

Consider `CCN(C)/C=N/c1cc(OC)c(C(O)(CSCc2ccccc2)C(F)(F)F)cc1C` (centres unmarked) [E.069, N′-[4-[1-(benzylsulfanylmethyl)-2,2,2-trifluoro-1-hydroxy-ethyl]-5-methoxy-2-methyl-phenyl]-N-ethyl-N-methyl-formamidine], for which the pest or weed control at 200 ppm in series [1], in series [2], in series [3] and in series [4] was at least 80% each time.

For `CCSCC(O)(c1cc(C)c(/N=C/N(C)CC)cc1OC)C(F)(F)F` (centres unmarked) [E.073, N-ethyl-N′-[4-[1-(ethylsulfanylmethyl)-2,2,2-trifluoro-1-hydroxy-ethyl]-5-methoxy-2-methyl-phenyl]-N-methyl-formamidine], the melting point is 81 to 83 °C. In addition, in series [1], the pest or weed control at 200 ppm was at least 80%. Besides, the pest or weed control at 200 ppm in series [3] is at least 80%.

On to `CCN(C)/C=N/c1cc(OC)c(C(O)(C2=COCCC2)C(F)(F)F)cc1C` (centres unmarked) [E.074, N′-[4-[1-(3,4-dihydro-2H-pyran-5-yl)-2,2,2-trifluoro-1-hydroxy-ethyl]-5-methoxy-2-methyl-phenyl]-N-ethyl-N-methyl-formamidine], for which the melting point is 115 to 116.6 °C. Further, the pest or weed control at 200 ppm in series [1] was at least 80%. For the same compound, the pest or weed control at 200 ppm in series [3] was at least 80%. The pest or weed control at 200 ppm in series [4] is at least 80%.

Consider `CCN(C)/C=N/c1cc(OC)c(C(O)(C2CCC(OC)CC2)C(F)(F)F)cc1C` (centres unmarked) [E.075, N-ethyl-N′-[5-methoxy-2-methyl-4-[2,2,2-trifluoro-1-hydroxy-1-(4-methoxycyclohexyl)ethyl]phenyl]-N-methyl-formamidine], for which the pest or weed control at 200 ppm in series [1], in series [2], in series [3] and in series [4] was at least 80% throughout.

For the compound `CCN(C)/C=N/c1cc(OC)c(C(O)(C2CCC(OC(C)C)CC2)C(F)(F)F)cc1C` (centres unmarked) [E.078, N-ethyl-N′-[5-methoxy-2-methyl-4-[2,2,2-trifluoro-1-hydroxy-1-(4-isopropoxycyclohexyl)ethyl]phenyl]-N-methyl-formamidine], the pest or weed control at 200 ppm in series [1], in series [2], in series [3] and in series [4] was at least 80% in each case.

`CCCOC1CCC(C(O)(c2cc(C)c(/N=C/N(C)CC)cc2OC)C(F)(F)F)CC1` (centres unmarked) [E.079, N-ethyl-N′-[5-methoxy-2-methyl-4-[2,2,2-trifluoro-1-hydroxy-1-(4-propoxycyclohexyl)ethyl]phenyl]-N-methyl-formamidine]: the pest or weed control at 200 ppm in series [1], in series [2], in series [3] and in series [4] was at least 80% in each case.

Take `CCOC1CCC(C(O)(c2cc(C)c(/N=C/N(C)CC)cc2OC)C(F)(F)F)CC1` (centres unmarked) [E.080, N′-[4-[1-(4-ethoxycyclohexyl)-2,2,2-trifluoro-1-hydroxy-ethyl]-5-methoxy-2-methyl-phenyl]-N-ethyl-N-methyl-formamidine]: the pest or weed control at 200 ppm in series [1], in series [2], in series [3] and in series [4] was at least 80% each time.

Take `CCN(C)/C=N/c1cc(OC)c(C(O)(C/C(C)=N/OCc2ccccc2)C(F)(F)F)cc1C` (centres unmarked) [E.081]: the pest or weed control at 200 ppm in series [1], in series [2], in series [3] and in series [4] was at least 80% each time.
